Laboratory results from patent US4594347A, “Pyrrolo [3,2,1-ij]-quinoline carboxylic acid compound” (Otsuka Pharmaceutical Co. Limited, priority 1983, dated 1986).

How the values were obtained:
[1] = test system: Pseudomonas aeruginosa ATCC 10145; test: Antimicrobial test in vitro (MIC, agar plate dilution method); assay type: cell-based; parameters: unit not given here; settings: P. aeruginosa ATCC 10145
Experimental: (§1) The antimicrobial activities of the following test compounds were tested by measuring the minimum inhibitory concentration (MIC) by an agar plate dilution method [cf. Chemotherapy, 22, 1126-1128 (1974)]. The test microorganisms were used in a concentration of 1×10^8 cells/ml (optical dencity (O.D.) at 660 m: 0.07-0.16) and 1×10^6 cells/ml (dilution: 100 folds).
J: Pseudomonas aeruginosa ATCC 10145

[2] = test system: Escherichia coli NIHJ JC-2; test: as above; assay type: cell-based; parameters: unit not given here; settings: E. coli NIHJ JC-2
Experimental: as §1
C: Escherichia coli NIHJ JC-2

[3] = test system: Staphylococcus aureus FDA 209P; test: as above; assay type: cell-based; parameters: unit not given here; settings: S. aureus FDA 209P
Experimental: as §1
A: Staphylococcus aureus FDA 209P

[4] = test system: Streptococcus pyogenes II D S-23; test: as above; assay type: cell-based; parameters: unit not given here; settings: S. pyogenes II D S-23
Experimental: as §1
B: Streptococcus pyogenes II D S-23

[5] = test system: Proteus morganii II D Kono; test: as above; assay type: cell-based; parameters: unit not given here; settings: P. morganii II D Kono
Experimental: as §1
G: Proteus morganii II D Kono

[6] = test system: Acinetobacter calcoaceticus AC-54; test: as above; assay type: cell-based; parameters: unit not given here; settings: A. calcoaceticus AC-54
Experimental: as §1
I: Acinetobacter calcoaceticus AC-54

[7] = test system: Serratia marcescens IFO 12648; test: as above; assay type: cell-based; parameters: unit not given here; settings: S. marcescens IFO 12648
Experimental: as §1
H: Serratia marcescens IFO 12648

Proteus mirabilis 1287 = test: as above; assay type: cell-based; parameters: unit not given here; settings: P. mirabilis 1287
Experimental: as §1
F: Proteus mirabilis 1287

Escherichia coli No. 29 = test: as above; assay type: cell-based; parameters: unit not given here; settings: E. coli No. 29
Experimental: as §1
D: Escherichia coli No. 29

[8] = test system: Pseudomonas aeruginosa E-2; test: as above; assay type: cell-based; parameters: unit not given here; settings: P. aeruginosa E-2
Experimental: as §1
K: Pseudomonas aeruginosa E-2

[9] = test system: Klebsiella pneumoniae NCTC 9632; test: as above; assay type: cell-based; parameters: unit not given here; settings: K. pneumoniae NCTC 9632
Experimental: as §1
E: Klebsiella pneumoniae NCTC 9632

[10] = test system: Pseudomonas aeruginosa E-2; test: Therapeutic effects of compounds in urinary infectious diseases in vivo; parameters: species or system JCL:S.D. female rats; settings: E2, 96 h, female S.D. rats, bladder infection, oral at 6, 24 and 48 hours, urine and kidney colonies after 4 days, Probit method, read-out: 50% effective dose (ED50)
Experimental: Pseudomonas aeruginosa E-2 was cultured in a nutrient medium at 37° C. for 18 hours and the culture broth thus obtained was diluted with the same medium to prepare a solution of the microorganism (cell concentration: 10^7 cells/ml). To the solution were dipped a UV-sterilized disc [glyceryl monomyristate (manufactured by Nikko Chemicals, Japan) and sodium cetylsulfurate (manufactured by Nikko Chemicals, Japan) in a weight ratio of 9:1; diameter: 2.0 mm, length: 3.0 mm] under ice-cooling for 1.5 hour to give a microorganism-containing disc for inoculation.
The above-prepared disc was surgically inserted into the bladder of JCL:S.D. female rats (one group: four rats) anaesthetized with secobarbital sodium. After the animals have been infected with the microorganism, i.e. 6 hours after the insertion of the disc, 1% oxamide-containing feed and water were administered to the animals. The oxamide-containing feed was changed to a normal feed after 24 hours. Test compounds 1, 7 and 8 as used in Test 1 (in the form of a 0.5% CMC suspension) were each orally administered to the animals in a dose of 16 mg/kg, 8.0 mg/kg, 4.0 mg/kg, 2.0 mg/kg, and 1.0 mg/kg at 6, 24 and 48 hours after the insertion of disc. After 4 days from the infection, urine was collected and further the kidney was taken out from the animals, and then the presence of microorganism was checked as to the collected urine and kidney. That is, 0.1 ml of the urine was applied onto an agar plate medium and cultured at 37° C. for 18 hours, and the number of colonies was counted. Besides, the taken out kidney was divided into two, and the plain section was contacted to an agar plate medium, and the medium was cultured likewise, and the number of colonies was counted, likewise. When the number of colonies was less than 10, it was evaluated as "effective," and when the number of colonies was more than 10, it was evaluated as "ineffective". […]

| minimum inhibitory concentration (MIC) ([1]; 1×10^6 cells/ml) | minimum inhibitory concentration (MIC) ([1]; 1×10^8 cells/ml) | minimum inhibitory concentration (MIC) ([2]; 1×10^6 cells/ml) | minimum inhibitory concentration (MIC) ([2]; 1×10^8 cells/ml) | minimum inhibitory concentration (MIC) ([3]; 1×10^6 cells/ml) | minimum inhibitory concentration (MIC) ([3]; 1×10^8 cells/ml) | minimum inhibitory concentration (MIC) ([4]; 1×10^6 cells/ml) | minimum inhibitory concentration (MIC) ([4]; 1×10^8 cells/ml) | minimum inhibitory concentration (MIC) ([5]; 1×10^6 cells/ml) | minimum inhibitory concentration (MIC) ([5]; 1×10^8 cells/ml) | minimum inhibitory concentration (MIC) ([6]; 1×10^6 cells/ml) | minimum inhibitory concentration (MIC) ([6]; 1×10^8 cells/ml) | minimum inhibitory concentration (MIC) ([7]; 1×10^6 cells/ml) | minimum inhibitory concentration (MIC) ([7]; 1×10^8 cells/ml) | minimum inhibitory concentration (MIC) (Proteus mirabilis 1287; 1×10^6 cells/ml) | minimum inhibitory concentration (MIC) (Proteus mirabilis 1287; 1×10^8 cells/ml) | minimum inhibitory concentration (MIC) (Escherichia coli No. 29; 1×10^6 cells/ml) | minimum inhibitory concentration (MIC) (Escherichia coli No. 29; 1×10^8 cells/ml) | minimum inhibitory concentration (MIC) ([8]; 1×10^6 cells/ml) | minimum inhibitory concentration (MIC) ([8]; 1×10^8 cells/ml) | SMILES | further results |
| --- | --- | --- | --- | --- | --- | --- | --- | --- | --- | --- | --- | --- | --- | --- | --- | --- | --- | --- | --- | --- | --- |
| 3.13 | 6.25 | 0.2 | 0.2 | 0.2 | 0.39 | 12.5 | 12.5 | 0.39 | 0.39 | 0.78 | 1.56 | 0.78 | 0.78 | 0.78 | 1.56 | 0.2 | 0.39 | 6.25 | 6.25 | CC1Cc2c(N3CCOCC3)c(F)c(N)c3c(=O)c(C(=O)O)cn1c23 (stereo not shown) [Compound 3, 7-amino-8-fluoro-9-(4-morpholino)-2-methyl-6-oxo-1,2-dihydro-pyrrolo[3,2,1-ij]quinoline-5-carboxylic acid] | minimum inhibitory concentration (MIC) ([9]; 1×10^6 cells/ml): 0.39; minimum inhibitory concentration (MIC) ([9]; 1×10^8 cells/ml): 0.39 |
| 12.5 | 25 | 0.78 | 0.78 | 0.39 | 0.39 | 25 | 25 | 1.56 | 1.56 | 6.25 | 6.25 | 6.25 | 6.25 | 6.25 | 6.25 | 1.56 | 1.56 | 25 | 25 | CC1Cc2c(N3CCCCC3)c(F)c(N)c3c(=O)c(C(=O)O)cn1c23 (stereo not shown) [Compound 4, 7-amino-8-fluoro-2-methyl-6-oxo-9-(1-piperidyl)-1,2-dihydro-pyrrolo[3,2,1-ij]quinoline-5-carboxylic acid] | minimum inhibitory concentration (MIC) ([9]; 1×10^6 cells/ml): 1.56; minimum inhibitory concentration (MIC) ([9]; 1×10^8 cells/ml): 3.13 |
| 6.25 | 6.25 | 0.39 | 0.78 | 0.2 | 0.39 | 6.25 | 12.5 | 1.56 | 1.56 | 3.13 | 6.25 | 1.56 | 3.13 | 1.56 | 1.56 | 0.78 | 0.78 | 6.25 | 12.5 | CC1Cc2c(N3CCC(O)CC3)c(F)c(N)c3c(=O)c(C(=O)O)cn1c23 (stereo not shown) [Compound 5, 7-amino-8-fluoro-9-(4-hydroxy-1-piperidyl)-2-methyl-6-oxo-1,2-dihydro-pyrrolo[3,2,1-ij]quinoline-5-carboxylic acid] | minimum inhibitory concentration (MIC) ([9]; 1×10^6 cells/ml): 0.78; minimum inhibitory concentration (MIC) ([9]; 1×10^8 cells/ml): 0.78 |
| 6.25 | 12.5 | 0.78 | 1.56 | 0.39 | 0.78 | 6.25 | 12.5 | 6.25 | 6.25 | 6.25 | 6.25 | 6.25 | 6.25 | 6.25 | 6.25 | 1.56 | 1.56 | 1.56 | 12.5 | CC1Cc2c(N3CCCC3)c(F)c(N)c3c(=O)c(C(=O)O)cn1c23 (stereo not shown) [Compound 6, 7-amino-8-fluoro-2-methyl-6-oxo-9-(1-pyrrolidinyl)-1,2-dihydro-pyrrolo[3,2,1-ij]quinoline-5-carboxylic acid] | minimum inhibitory concentration (MIC) ([9]; 1×10^6 cells/ml): 1.56; minimum inhibitory concentration (MIC) ([9]; 1×10^8 cells/ml): 6.25 |
| – | – | – | – | – | – | – | – | – | – | – | – | – | – | – | – | – | – | – | – | CC1Cc2c(N3CCN(C)CC3)c(F)cc3c(=O)c(C(=O)O)cn1c23 (stereo not shown) [Test compound 7, 8-fluoro-2-methyl-6-oxo-9-(4-methyl-1-piperazinyl)-1,2-dihydro-pyrrolo[3,2,1-ij]quinoline-5-carboxylic acid] | ED50 [10]: 6.15 mg/kg |
| – | – | – | – | – | – | – | – | – | – | – | – | – | – | – | – | – | – | – | – | CC1CCc2c(N3CCN(C)CC3)c(F)cc3c(=O)c(C(=O)O)cn1c23 (stereo not shown) [Test compound 8, 8-(4-methyl-1-piperazinyl)-9-fluoro-5-methyl-6,7-dihydro-1-oxo-1H,5H-benzo[ij]quinolidine-2-carboxylic acid] | ED50 [10]: 12 mg/kg |

| SMILES | minimum inhibitory concentration (MIC) ([1]; 1×10^6 cells/ml) | minimum inhibitory concentration (MIC) ([1]; 1×10^8 cells/ml) | minimum inhibitory concentration (MIC) ([2]; 1×10^6 cells/ml) | minimum inhibitory concentration (MIC) ([2]; 1×10^8 cells/ml) | minimum inhibitory concentration (MIC) ([3]; 1×10^6 cells/ml) | minimum inhibitory concentration (MIC) ([3]; 1×10^8 cells/ml) | minimum inhibitory concentration (MIC) ([4]; 1×10^6 cells/ml) | minimum inhibitory concentration (MIC) ([4]; 1×10^8 cells/ml) | minimum inhibitory concentration (MIC) ([5]; 1×10^6 cells/ml) | minimum inhibitory concentration (MIC) ([5]; 1×10^8 cells/ml) | minimum inhibitory concentration (MIC) ([6]; 1×10^6 cells/ml) | minimum inhibitory concentration (MIC) ([6]; 1×10^8 cells/ml) | minimum inhibitory concentration (MIC) ([7]; 1×10^6 cells/ml) | minimum inhibitory concentration (MIC) ([7]; 1×10^8 cells/ml) | minimum inhibitory concentration (MIC) (Proteus mirabilis 1287; 1×10^6 cells/ml) | minimum inhibitory concentration (MIC) (Proteus mirabilis 1287; 1×10^8 cells/ml) | minimum inhibitory concentration (MIC) (Escherichia coli No. 29; 1×10^6 cells/ml) | minimum inhibitory concentration (MIC) (Escherichia coli No. 29; 1×10^8 cells/ml) | minimum inhibitory concentration (MIC) ([8]; 1×10^6 cells/ml) | minimum inhibitory concentration (MIC) ([8]; 1×10^8 cells/ml) | further results |
| --- | --- | --- | --- | --- | --- | --- | --- | --- | --- | --- | --- | --- | --- | --- | --- | --- | --- | --- | --- | --- | --- |
| CC1Cc2c(N3CCNCC3)c(F)c(N)c3c(=O)c(C(=O)O)cn1c23 (stereo not shown) [Compound 2, 8-fluoro-2-methyl-9-(1-piperazinyl)-7-amino-6-oxo-1,2-dihydro-pyrrolo[3,2,1-ij]quinoline-5-carboxylic acid] | 0.39 | 0.39 | 0.1 | 0.1 | 0.39 | 0.78 | 3.13 | 6.25 | 0.2 | 0.39 | 0.78 | 3.13 | 0.2 | 0.2 | 0.2 | 0.2 | 0.1 | 0.1 | 0.39 | 0.39 | minimum inhibitory concentration (MIC) ([9]; 1×10^6 cells/ml): 0.1; minimum inhibitory concentration (MIC) ([9]; 1×10^8 cells/ml): 0.2 |
